The results in this text go back to ChEMBL document CHEMBL1201862, “PubChem BioAssay data set” (2004).

Assay in all cases: inhibition of tumour cell growth, NCI panel, 48 h
The test system of assay [1] is SK-OV-3.
In assay [2] the test system is A498.
Assay [3] relates to A549.
The subject of assay [4] is NCI/ADR-RES.
The subject of assay [5] is RXF 393.
Assay [6] relates to SNB-75.
In assay [7] the test system is SNB-19.
Assay [8] deals with HCT-15.
For assay [9], the system named is SK-MEL-5.
In assay [10] the test system is SF-539.
Assay [11] has as its system K562.
In assay [12] the test system is SK-MEL-28.
The subject of assay [13] is HOP-92.
For assay [14], the system named is MOLT-4.
Assay [15] deals with CAKI-1.
Assay [16] relates to NCI-H23.
In assay [17] the test system is SK-MEL-2.
The test system of assay [18] is Malme-3M.
Assay [19] relates to MCF7.

Each structure is given as a SMILES string. “And” between values parts separate entries of the source, which are not always exact repeats. Equal entries are not always repeated.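 Interpolation was linear, between the two tested concentrations surrounding the appropriate level; five concentrations were tested over 48 hours in 96-well plates. Abbreviation: GI50, concentration required for 50% inhibition of growth.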 The source made the active and inactive calls. Rule as the data show it: active = GI50 up to about 1.1 µM and inactive = higher. Some results are limits rather than exact numbers.

For the molecule `CN(C)C(c1ccccc1)C1COC2Cc3ccccc3C1O2` (configuration not stated), the GI50 was > 100 µM (inactive) in assay [1]; > 100 µM (inactive) in assay [2]; > 100 µM (inactive) in assay [3]; > 100 µM (inactive) in [4]; > 100 µM (inactive) in assay [5]; 24.9 µM (inactive) and 15.5 µM (inactive) in [6]. In addition, the GI50 is > 100 µM (inactive) in [7]; more than 100 µM in assay [8]; > 100 µM (inactive) in assay [9]; > 100 µM (inactive) in assay [10]; 66.2 µM (inactive) and 38.7 µM (inactive) in assay [11]; > 100 µM (inactive) in assay [12]. Moreover, the GI50 in assay [13] is 58.1 µM (inactive); in [14], > 100 µM (inactive) and 54 µM (inactive); in [15], > 100 µM (inactive); in assay [16] it was > 100 µM (inactive); in assay [17] it was > 100 µM (inactive); in [18], > 100 µM (inactive) and 60.7 µM (inactive).

Consider `COC(=O)/C(=N/Nc1cccc(Cl)c1)C(C(=O)C(=O)Nc1cccc(Cl)c1C)c1nc2ccccc2nc1C` (configuration not stated), for which the GI50 in assay [1] is > 100 µM (inactive); in [2], > 100 µM (inactive); in assay [3], 63.7 µM (inactive); in assay [5] it was > 100 µM (inactive); in [9], 36 µM (inactive); in [10], 59.2 µM (inactive). Besides, the GI50 in assay [11] is 32.2 µM (inactive); in assay [12], 92.3 µM (inactive); in assay [14], > 100 µM (inactive); in assay [15], 52.6 µM (inactive); in [16], > 100 µM (inactive); in assay [17] it was 38.5 µM (inactive). In assay [18], the GI50 was 55 µM (inactive).

For the molecule `CCOC(=O)C(NC(=O)NCc1ccc(F)cc1)C(F)(F)F` (configuration not stated), the GI50 in assay [1], in assay [2], in [3], in assay [4], in [5] and in assay [6] was > 100 µM (inactive) throughout. For the same molecule, the GI50 was > 100 µM (inactive) in [7]; more than 100 µM in assay [8]; > 100 µM (inactive) in assay [9]; > 100 µM (inactive) in assay [10]; > 100 µM (inactive) in [11]; > 100 µM (inactive) in assay [12]. The GI50 in [14] is > 10 µM (inactive); in assay [16], > 100 µM (inactive); in [17] it was > 100 µM (inactive).

With `COc1ccc(/C=N/NC(=O)CSc2nc(-c3ccccc3)c(-c3ccccc3)[nH]2)cc1OC`, the GI50 was 26.4 µM (inactive) in [1]; 26.6 µM (inactive) in assay [2]; 45.9 µM (inactive) in assay [3]; 20.1 µM (inactive) in [5]; 29.9 µM (inactive) in assay [6]; 34.5 µM (inactive) in assay [7]. Also, the GI50 is 26.9 µM in assay [8]; 17.5 µM (inactive) in assay [9]; 22.4 µM (inactive) in assay [10]; 41 µM (inactive) in assay [12]; 42.1 µM (inactive) in [13]; 16 µM (inactive) in [14]. Besides, the GI50 in assay [15] was 33.1 µM (inactive); in assay [16], 30.3 µM (inactive); in [17], 20.7 µM (inactive); in assay [18] it was 19.5 µM (inactive).

As to `O=C1CCC(=O)C(C(=O)CCC(=O)Nc2cccc(Cl)c2)C1` (configuration not stated), the GI50 in assay [1], in [2], in assay [3], in [5], in assay [6] and in [7] was > 100 µM (inactive) in each case. Also, the GI50 in assay [8] is more than 100 µM; in [9] it was > 100 µM (inactive); in [10] it was > 100 µM (inactive); in assay [11], > 100 µM (inactive); in [13] it was > 100 µM (inactive); in [14], > 100 µM (inactive). Further, the GI50 in assay [15], in [16] and in assay [18] was > 100 µM (inactive) each time.

Take `COc1ccc(C2S/C(=C\c3ccccc3O)C(=O)N2NC(=O)Cc2ccccc2)cc1` (configuration not stated): the GI50 in assay [1] was > 100 µM (inactive); in assay [2] it was > 100 µM (inactive); in assay [3] it was 98.6 µM (inactive); in assay [5] it was 61.7 µM (inactive); in assay [6] it was 57.3 µM (inactive); in assay [8], more than 100 µM. The GI50 was > 100 µM (inactive) in assay [9]; > 100 µM (inactive) in assay [10]; 68.5 µM (inactive) in assay [11]; 40.3 µM (inactive) in assay [12]; > 100 µM (inactive) in assay [13]; 39.5 µM (inactive) in [14]. In addition, the GI50 in [15], in assay [16], in assay [17] and in assay [18] was > 100 µM (inactive) in each case.

For the molecule `CNc1nc(C(N)=O)c(N)s1`, the GI50 in assay [1], in assay [2], in [3], in assay [4], in [5] and in assay [7] was > 100 µM (inactive) throughout. Besides, the GI50 in [8] is more than 100 µM; in assay [9], 84.9 µM (inactive); in [10] it was > 100 µM (inactive); in [11] it was > 100 µM (inactive); in [12], > 100 µM (inactive); in [13], > 100 µM (inactive). Further, the GI50 in [14], in [15], in assay [16], in assay [17] and in assay [18] was > 100 µM (inactive) in each case.

For the molecule `CC1CC(=O)Nc2cc(Cl)ccc2N1C(=O)C1CC1` (configuration not stated), the GI50 in assay [1], in [2], in [3], in assay [5], in assay [19] and in [7] was > 100 µM (inactive) each time. For the same molecule, the GI50 in assay [8] is more than 100 µM; in assay [9], > 100 µM (inactive); in [10] it was > 100 µM (inactive); in [11], > 100 µM (inactive); in [12] it was > 100 µM (inactive); in assay [13], > 100 µM (inactive). Further, the GI50 in assay [14], in [15], in [16], in assay [17] and in [18] was > 100 µM (inactive) in each case.

`C[n+]1c(-c2ccc(/C=N/Nc3ccnc(N/N=C/c4ccc(-c5cn6ccccc6[n+]5C)cc4)n3)cc2)cn2ccccc21`: the GI50 in assay [1] was > 100 µM (inactive); in assay [3] it was > 100 µM (inactive); in assay [4] it was 31.9 µM (inactive); in [6] it was 34.7 µM (inactive); in assay [7], 42.8 µM (inactive); in [8], 98.9 µM. Besides, the GI50 in assay [9] was 56.4 µM (inactive); in [10], 20 µM (inactive); in assay [12], 34.7 µM (inactive); in assay [14], > 100 µM (inactive).
